Laboratory results from patent publication US8815872B2, “Macrocyclics pyrimidines as aurora kinase inhibitors” (Merck Patent GmbH, priority 2008, dated 2014).
Where “and” joins values, the source holds several entries; their conditions need not be identical. Equal entries are not always repeated.

How the values were obtained:
Test in all cases: Other kinases, inhibition at 1 μM (Table 3)
Assay type in all cases: biochemical
IKK-epsilon = molecular target: T1, IKK-epsilon (Homo sapiens, UniProt Q14164)
T1 construct: purchased Caliper Life Sciences
Experimental: (§1) The Aurora and other kinase assays described here were performed on two Caliper Life Sciences systems, the LC3000 and the Desktop Profiler. These provide data on enzyme activity via measurement of the relative amounts of phosphorylated or unphosphorylated fluorescently labelled substrate peptide at the end of an enzymatic reaction. These different states of peptide are resolved by applying a potential difference across the sample. The presence of a charged phosphate group on the product (as opposed to the substrate) causes a different peptide mobility between the two peptides. This is visualized by excitation of a fluorescent label on the substrate and product peptides and represented as peaks within the analysis software.
(§2) The Desktop Profiler utilizes the same principal as the LC 3000 for calculating percentage conversion of a substrate to product. Caliper Life Sciences provided proprietary flash frozen pre-made 384 well plates containing selected kinases. Each column in the 384 well plate contained a particular selected kinase. A second plate, the ‘substrate plate’ contained a mix of fluorescently labeled peptide substrate and ATP. These were arranged in columns so that transfer for substrate plate to enzyme plate provided the correct enzyme with the correct substrate/ATP concentration.
(§3) Compounds were added to a thawed enzyme plate in the desired format, in single concentrations. Reactions were initiated by transfer of the ubstrate/ATP mix from the substrate plate. The enzyme plate was incubated for 90 mins at 25 °C. The reaction was stopped by addition of […] of Stop Buffer (100 mM HEPES pH 7.5, 0.015% Brij-35, 10 mM EDTA (Sigma, E7889)).
(§4) Plates were read in a manner identical to that of the LC3000, and the ratio between substrate and product peaks provided the activity of the enzyme in that well. This was best represented by a plate heat map which colors each well by percent inhibition as compared to positive and negative controls (no inhibitors and no ATP respectively).

MELK = molecular target: T2, MELK (Homo sapiens, UniProt Q14680)
T2 construct: purchased Caliper Life Sciences
Experimental: as §1, §2, §3, §4

CK1-delta = molecular target: T3, CK1-delta (Homo sapiens, UniProt P48730)
T3 construct: purchased Caliper Life Sciences
Experimental: as §1, §2, §3, §4

Pim-1 = molecular target: T4, Pim-1 (Homo sapiens, UniProt P11309)
T4 construct: purchased Caliper Life Sciences
Experimental: as §1, §2, §3, §4

EF2K = molecular target: T5, EF2K (Homo sapiens, UniProt O00418)
T5 construct: purchased Caliper Life Sciences
Experimental: as §1, §2, §3, §4

S6K1 = molecular target: T6, S6K1 (Homo sapiens, UniProt P23443)
T6 construct: purchased Caliper Life Sciences
Experimental: as §1, §2, §3, §4

MAPK2 = molecular target: T7, MAPK2 (Homo sapiens, UniProt P28482)
T7 construct: purchased Caliper Life Sciences
Experimental: as §1, §2, §3, §4

PKA = molecular target: T8, PKA (Homo sapiens, UniProt P17612)
T8 construct: purchased Caliper Life Sciences
Experimental: as §1, §2, §3, §4

PAK6 = molecular target: T9, PAK6 (Homo sapiens, UniProt Q9NQU5)
T9 construct: purchased Caliper Life Sciences
Experimental: as §1, §2, §3, §4

SAPK2-beta = molecular target: T10, SAPK2-beta (Homo sapiens, UniProt Q15759)
T10 construct: purchased Caliper Life Sciences
T10 sequence (Q15759 whole entry): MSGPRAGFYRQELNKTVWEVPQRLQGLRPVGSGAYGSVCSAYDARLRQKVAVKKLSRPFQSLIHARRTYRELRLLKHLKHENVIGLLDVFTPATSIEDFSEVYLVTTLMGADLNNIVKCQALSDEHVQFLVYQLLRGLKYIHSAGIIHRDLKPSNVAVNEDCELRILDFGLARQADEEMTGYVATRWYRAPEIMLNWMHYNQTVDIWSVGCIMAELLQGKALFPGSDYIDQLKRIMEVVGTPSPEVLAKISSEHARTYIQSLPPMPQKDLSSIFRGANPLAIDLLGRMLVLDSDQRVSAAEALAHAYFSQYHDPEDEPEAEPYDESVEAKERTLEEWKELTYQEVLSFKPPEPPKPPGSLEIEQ
Experimental: as §1, §2, §3, §4

YES1 = molecular target: T11, YES1 (Homo sapiens, UniProt P07947)
T11 construct: purchased Caliper Life Sciences
Experimental: as §1, §2, §3, §4

PKB-beta = molecular target: T12, PKB-beta (Homo sapiens, UniProt P31751)
T12 construct: purchased Caliper Life Sciences
Experimental: as §1, §2, §3, §4

MARK3 = molecular target: T13, MARK3 (Homo sapiens, UniProt P27448)
T13 construct: purchased Caliper Life Sciences
Experimental: as §1, §2, §3, §4

MKK1 = molecular target: T14, MKK1 (Homo sapiens, UniProt Q02750)
T14 construct: purchased Caliper Life Sciences
T14 sequence (Q02750 whole entry, species assumed): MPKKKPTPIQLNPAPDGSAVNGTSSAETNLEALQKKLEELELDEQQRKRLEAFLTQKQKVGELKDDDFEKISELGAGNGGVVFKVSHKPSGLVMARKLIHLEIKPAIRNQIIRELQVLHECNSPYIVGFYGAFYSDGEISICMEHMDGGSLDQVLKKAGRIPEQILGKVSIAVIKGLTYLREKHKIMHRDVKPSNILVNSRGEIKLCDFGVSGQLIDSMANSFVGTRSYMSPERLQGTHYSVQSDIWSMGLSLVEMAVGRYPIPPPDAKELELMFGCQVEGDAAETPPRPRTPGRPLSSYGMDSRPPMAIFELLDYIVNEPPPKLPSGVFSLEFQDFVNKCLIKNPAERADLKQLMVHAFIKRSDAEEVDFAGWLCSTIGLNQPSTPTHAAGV
Experimental: as §1, §2, §3, §4

PRK2 = molecular target: T15, PRK2 (Homo sapiens, UniProt Q16513)
T15 construct: purchased Caliper Life Sciences
T15 sequence (Q16513 whole entry, species assumed): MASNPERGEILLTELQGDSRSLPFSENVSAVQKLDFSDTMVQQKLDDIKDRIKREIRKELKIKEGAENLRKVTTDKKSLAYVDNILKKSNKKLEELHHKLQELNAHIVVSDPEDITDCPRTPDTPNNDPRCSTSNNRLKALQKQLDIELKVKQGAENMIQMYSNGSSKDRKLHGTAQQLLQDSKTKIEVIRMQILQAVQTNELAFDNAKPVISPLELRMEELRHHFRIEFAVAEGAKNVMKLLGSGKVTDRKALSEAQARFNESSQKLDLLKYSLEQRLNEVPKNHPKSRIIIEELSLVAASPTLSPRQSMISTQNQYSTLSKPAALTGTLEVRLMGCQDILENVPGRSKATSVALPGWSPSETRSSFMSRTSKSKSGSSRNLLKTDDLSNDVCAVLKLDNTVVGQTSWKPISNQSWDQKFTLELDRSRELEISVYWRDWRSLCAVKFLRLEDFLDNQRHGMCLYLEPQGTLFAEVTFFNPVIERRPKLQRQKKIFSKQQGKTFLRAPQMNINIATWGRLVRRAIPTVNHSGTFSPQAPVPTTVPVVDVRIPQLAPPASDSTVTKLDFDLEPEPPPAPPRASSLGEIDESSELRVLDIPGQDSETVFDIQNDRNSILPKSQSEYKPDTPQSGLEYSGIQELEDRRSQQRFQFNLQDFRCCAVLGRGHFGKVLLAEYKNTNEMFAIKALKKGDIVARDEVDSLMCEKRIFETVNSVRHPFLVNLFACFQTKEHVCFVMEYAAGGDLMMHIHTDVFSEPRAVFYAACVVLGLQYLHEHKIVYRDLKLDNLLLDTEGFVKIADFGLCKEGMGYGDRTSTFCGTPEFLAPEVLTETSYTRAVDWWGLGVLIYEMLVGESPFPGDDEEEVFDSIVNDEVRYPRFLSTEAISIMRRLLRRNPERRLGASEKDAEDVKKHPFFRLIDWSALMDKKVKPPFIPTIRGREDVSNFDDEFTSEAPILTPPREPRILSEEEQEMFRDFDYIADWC
Experimental: as §1, §2, §3, §4

ROCK-II = molecular target: T16, ROCK-II (Homo sapiens, UniProt O75116)
T16 construct: purchased Caliper Life Sciences
Experimental: as §1, §2, §3, §4

CAMKI = molecular target: T17, CAMKI (Homo sapiens, UniProt Q14012)
T17 construct: purchased Caliper Life Sciences
Experimental: as §1, §2, §3, §4

PLK1 = molecular target: T18, PLK1 (Homo sapiens, UniProt P53350)
T18 construct: purchased Caliper Life Sciences
T18 sequence (P53350 whole entry, species assumed): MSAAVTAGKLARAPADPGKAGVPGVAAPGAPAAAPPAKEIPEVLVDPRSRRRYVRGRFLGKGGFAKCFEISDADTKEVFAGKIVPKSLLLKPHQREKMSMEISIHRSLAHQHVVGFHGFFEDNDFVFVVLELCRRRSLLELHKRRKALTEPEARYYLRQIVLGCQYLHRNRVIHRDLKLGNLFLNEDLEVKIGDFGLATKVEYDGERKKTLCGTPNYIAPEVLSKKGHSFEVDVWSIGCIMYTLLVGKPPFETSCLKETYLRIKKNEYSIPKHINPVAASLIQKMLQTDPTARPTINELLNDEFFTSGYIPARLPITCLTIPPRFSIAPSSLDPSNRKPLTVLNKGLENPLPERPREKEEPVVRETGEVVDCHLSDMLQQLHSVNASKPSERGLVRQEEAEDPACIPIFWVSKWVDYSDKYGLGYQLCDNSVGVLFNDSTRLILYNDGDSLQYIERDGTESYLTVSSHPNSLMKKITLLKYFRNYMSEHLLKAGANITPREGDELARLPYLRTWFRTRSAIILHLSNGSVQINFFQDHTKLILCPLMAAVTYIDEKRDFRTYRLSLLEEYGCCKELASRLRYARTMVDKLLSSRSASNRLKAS
Experimental: as §1, §2, §3, §4

GSK3-beta = molecular target: T19, GSK3-beta (Homo sapiens, UniProt P49841)
T19 construct: purchased Caliper Life Sciences
T19 sequence (P49841 whole entry, species assumed): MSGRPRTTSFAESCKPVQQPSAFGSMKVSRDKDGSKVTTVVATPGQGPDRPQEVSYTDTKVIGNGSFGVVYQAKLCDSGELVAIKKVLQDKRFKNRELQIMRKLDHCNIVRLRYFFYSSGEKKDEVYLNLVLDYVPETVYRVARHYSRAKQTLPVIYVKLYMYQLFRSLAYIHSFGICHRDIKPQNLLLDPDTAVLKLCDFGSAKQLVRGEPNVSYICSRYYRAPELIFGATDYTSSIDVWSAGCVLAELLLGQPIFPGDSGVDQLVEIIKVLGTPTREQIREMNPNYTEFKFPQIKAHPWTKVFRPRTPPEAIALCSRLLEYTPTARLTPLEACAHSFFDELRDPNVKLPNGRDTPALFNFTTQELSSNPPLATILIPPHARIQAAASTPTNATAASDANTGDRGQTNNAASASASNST
Experimental: as §1, §2, §3, §4

MSK1 = molecular target: T20, MSK1 (Homo sapiens, UniProt O75582)
T20 construct: purchased Caliper Life Sciences
T20 sequence (O75582 whole entry, species assumed): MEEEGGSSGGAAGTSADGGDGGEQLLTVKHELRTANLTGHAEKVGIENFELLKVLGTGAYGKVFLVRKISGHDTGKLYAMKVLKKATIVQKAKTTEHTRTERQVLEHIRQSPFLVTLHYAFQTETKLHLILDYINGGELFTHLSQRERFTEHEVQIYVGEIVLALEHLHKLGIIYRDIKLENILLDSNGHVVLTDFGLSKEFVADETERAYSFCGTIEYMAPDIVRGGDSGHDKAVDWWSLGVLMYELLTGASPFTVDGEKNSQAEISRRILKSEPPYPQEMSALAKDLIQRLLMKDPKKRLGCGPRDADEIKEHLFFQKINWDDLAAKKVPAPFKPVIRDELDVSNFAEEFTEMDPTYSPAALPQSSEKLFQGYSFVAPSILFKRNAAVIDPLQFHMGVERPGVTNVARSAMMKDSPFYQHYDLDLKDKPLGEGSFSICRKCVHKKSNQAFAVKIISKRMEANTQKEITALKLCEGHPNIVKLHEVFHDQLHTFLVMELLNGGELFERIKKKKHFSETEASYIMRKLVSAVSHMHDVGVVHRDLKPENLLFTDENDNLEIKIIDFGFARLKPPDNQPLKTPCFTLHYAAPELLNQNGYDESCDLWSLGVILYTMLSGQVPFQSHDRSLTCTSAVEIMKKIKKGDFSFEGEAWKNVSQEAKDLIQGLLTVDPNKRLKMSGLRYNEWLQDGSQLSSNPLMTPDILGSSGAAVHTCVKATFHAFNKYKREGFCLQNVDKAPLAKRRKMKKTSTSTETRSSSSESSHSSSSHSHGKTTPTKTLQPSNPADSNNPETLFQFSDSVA
Experimental: as §1, §2, §3, §4

PAK4 = molecular target: T21, PAK4 (Homo sapiens, UniProt O96013)
T21 construct: purchased Caliper Life Sciences
Experimental: as §1, §2, §3, §4

SAPK4 = molecular target: T22, SAPK4 (Homo sapiens, UniProt O15264)
T22 construct: purchased Caliper Life Sciences
Experimental: as §1, §2, §3, §4

MAPK1 = test system: MAPK1
Experimental: as §1, §2, §3, §4

TBK1 = molecular target: T23, TBK1 (Homo sapiens, UniProt Q9UHD2)
T23 construct: purchased Caliper Life Sciences
Experimental: as §1, §2, §3, §4

Pim-3 = molecular target: T24, Pim-3 (Homo sapiens, UniProt Q86V86)
T24 construct: purchased Caliper Life Sciences
Experimental: as §1, §2, §3, §4

LCK = molecular target: T25, LCK (Homo sapiens, UniProt P06239)
T25 construct: purchased Caliper Life Sciences
Experimental: as §1, §2, §3, §4

SRC = molecular target: T26, SRC (Homo sapiens, UniProt P12931)
T26 construct: purchased Caliper Life Sciences
Experimental: as §1, §2, §3, §4

MAPKAP-K1-alpha = molecular target: T27, MAPKAP-K1-alpha (Homo sapiens, UniProt Q15418)
T27 construct: purchased Caliper Life Sciences
Experimental: as §1, §2, §3, §4

DYRK1-alpha = molecular target: T28, DYRK1-alpha (Homo sapiens, UniProt Q13627)
T28 construct: purchased Caliper Life Sciences
Experimental: as §1, §2, §3, §4

MAPKAP-K2 = molecular target: T29, MAPKAP-K2 (Homo sapiens, UniProt P49137)
T29 construct: purchased Caliper Life Sciences
T29 sequence (P49137 whole entry, species assumed): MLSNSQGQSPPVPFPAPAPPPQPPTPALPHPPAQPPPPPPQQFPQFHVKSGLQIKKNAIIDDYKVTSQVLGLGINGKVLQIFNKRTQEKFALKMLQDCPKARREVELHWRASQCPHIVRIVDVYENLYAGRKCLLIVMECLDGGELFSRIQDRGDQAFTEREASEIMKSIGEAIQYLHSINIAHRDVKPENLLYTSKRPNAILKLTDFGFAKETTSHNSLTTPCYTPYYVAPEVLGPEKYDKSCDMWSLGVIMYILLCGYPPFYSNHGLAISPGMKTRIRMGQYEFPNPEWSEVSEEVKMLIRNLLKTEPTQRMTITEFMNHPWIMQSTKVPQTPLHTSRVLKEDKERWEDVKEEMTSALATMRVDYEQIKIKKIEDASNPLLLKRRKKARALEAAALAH
Experimental: as §1, §2, §3, §4

IR = molecular target: T30, IR (Homo sapiens, UniProt P06213)
T30 construct: purchased Caliper Life Sciences
Experimental: as §1, §2, §3, §4

CHK2 = molecular target: T31, CHK2 (Homo sapiens, UniProt O96017)
T31 construct: purchased Caliper Life Sciences
T31 sequence (O96017 whole entry, species assumed): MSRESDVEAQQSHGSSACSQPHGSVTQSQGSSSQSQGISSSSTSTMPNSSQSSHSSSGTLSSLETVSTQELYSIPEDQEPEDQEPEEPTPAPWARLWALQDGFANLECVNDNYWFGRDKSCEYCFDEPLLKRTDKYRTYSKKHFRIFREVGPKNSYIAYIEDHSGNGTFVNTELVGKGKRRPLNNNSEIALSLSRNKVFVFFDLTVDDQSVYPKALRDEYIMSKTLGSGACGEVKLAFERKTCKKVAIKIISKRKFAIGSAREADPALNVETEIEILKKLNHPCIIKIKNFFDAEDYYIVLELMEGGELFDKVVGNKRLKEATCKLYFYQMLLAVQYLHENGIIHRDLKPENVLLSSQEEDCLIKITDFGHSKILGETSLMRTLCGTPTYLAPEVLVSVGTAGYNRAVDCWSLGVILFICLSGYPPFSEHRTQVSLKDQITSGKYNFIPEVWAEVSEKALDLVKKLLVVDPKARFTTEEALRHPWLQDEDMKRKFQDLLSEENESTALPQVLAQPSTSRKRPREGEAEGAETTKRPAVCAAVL
Experimental: as §1, §2, §3, §4

Syk = molecular target: T32, Syk (Homo sapiens, UniProt P43405)
T32 construct: purchased Caliper Life Sciences
Experimental: as §1, §2, §3, §4

CDK2/cyclin A = molecular target: T33, CDK2/cyclin A (Homo sapiens, UniProt P24941)
T33 construct: purchased Caliper Life Sciences
Experimental: as §1, §2, §3, §4

SMILES: Fc1cnc2nc1NC1CCCC(C1)OC/C=C\COc1cccc(c1)N2 (single isomer, unassigned) [Example 33, (16Z)-6-fluoro-14,19-dioxa-2,4,8,26-tetraazatetracyclo[18.3.1.1˜3,7˜0.1˜9,13˜]hexacosa-1(24),3(26),4,6,16,20,22-heptaene]
- inhibition at 1 µM (IKK-epsilon): 91%
- % inhibition MELK (MELK): 101%
- % inhibition CK1-delta (CK1-delta): 85%
- % inhibition Pim-1 (Pim-1): 65%
- inhibition at 1 µM (EF2K): 78%
- inhibition at 1 µM (S6K1): 74%
- % inhibition MAPK2 (MAPK2): 79%
- % inhibition PKA (PKA): 82%
- % inhibition PAK6 (PAK6): 90%
- inhibition at 1 µM (SAPK2-beta): 83%
- inhibition at 1 µM (YES1): 49%
- % inhibition PKB-beta (PKB-beta): 85%
- % inhibition MARK3 (MARK3): 73%
- % inhibition MKK1 (MKK1): 71%
- inhibition at 1 µM (PRK2): 97%
- inhibition at 1 µM (ROCK-II): 79%
- % inhibition CAMKI (CAMKI): 93%
- % inhibition PLK1 (PLK1): 63% and 92%
- inhibition at 1 µM (GSK3-beta): 57%
- % inhibition MSK1 (MSK1): 96%
- % inhibition PAK4 (PAK4): 81%
- inhibition at 1 µM (SAPK4): 79%
- % inhibition MAPK1 (MAPK1): 91%
- inhibition at 1 µM (TBK1): 97%
- % inhibition Pim-3 (Pim-3): 84%
- inhibition at 1 µM (LCK): 54%
- inhibition at 1 µM (SRC): 58%
- % inhibition MAPKAP-K1-alpha (MAPKAP-K1-alpha): 56%
- inhibition at 1 µM (DYRK1-alpha): 86%
- % inhibition MAPKAP-K2 (MAPKAP-K2): 100%
- inhibition at 1 µM (IR): 67%
- % inhibition CHK2 (CHK2): 77%
- inhibition at 1 µM (Syk): 84%
- % inhibition CDK2/cyclin A (CDK2/cyclin A): 60%

SMILES: NC(=O)[C@H]1[C@H]2C[C@H]3[C@H]1Nc1nc(ncc1F)Nc1cccc(c1)CSS[C@@H]3C2 [Example 10]
- inhibition at 1 µM (IKK-epsilon): 75%
- % inhibition MELK (MELK): 36%
- % inhibition CK1-delta (CK1-delta): 92%
- % inhibition Pim-1 (Pim-1): 61%
- inhibition at 1 µM (EF2K): 62%
- inhibition at 1 µM (S6K1): 94%
- % inhibition MAPK2 (MAPK2): 90%
- % inhibition PKA (PKA): 72%
- % inhibition PAK6 (PAK6): 81%
- inhibition at 1 µM (SAPK2-beta): 81%
- inhibition at 1 µM (YES1): 9%
- % inhibition PKB-beta (PKB-beta): 101%
- % inhibition MARK3 (MARK3): 74%
- % inhibition MKK1 (MKK1): 13%
- inhibition at 1 µM (PRK2): 43%
- inhibition at 1 µM (ROCK-II): 75%
- % inhibition CAMKI (CAMKI): 73%
- % inhibition PLK1 (PLK1): 4% and 12%
- inhibition at 1 µM (GSK3-beta): 19%
- % inhibition MSK1 (MSK1): 77%
- % inhibition PAK4 (PAK4): 38%
- inhibition at 1 µM (SAPK4): 44%
- % inhibition MAPK1 (MAPK1): 78%
- inhibition at 1 µM (TBK1): 100%
- % inhibition Pim-3 (Pim-3): 63%
- inhibition at 1 µM (LCK): 14%
- inhibition at 1 µM (SRC): 14%
- % inhibition MAPKAP-K1-alpha (MAPKAP-K1-alpha): 12%
- inhibition at 1 µM (DYRK1-alpha): 83%
- % inhibition MAPKAP-K2 (MAPKAP-K2): 88%
- inhibition at 1 µM (IR): 37%
- % inhibition CHK2 (CHK2): 12%
- inhibition at 1 µM (Syk): 52%
- % inhibition CDK2/cyclin A (CDK2/cyclin A): 94%
